# Patent US8642784B2, “Biologically active compound N-[3-(4-nitrophenylamino)-indole-2-ilmethylene]aminoguanidine hydrochloride with anti-inflammatory activity” (priority 2010, dated 2014)
# Where a name gives a salt, the structure may show the parent alone. Read-outs that look alike come from different tables or passages of the source. Marks after values point to notes of the source that are not given here.
# Legend:
# [1] = tested on: adjuvant arthritis in Wistar rats; experiment: Chronic arthritis (adjuvant arthritis) model in Wistar rats; format: in vivo
# Method: Compound of formula 2 was tested in chronic arthritis (adjuvant arthritis) model in Wistar rats.
# In the same dose the compound has shown a potent (better than indomethacin) chondroprotective action towards interphalangeal joints of affected leg (x-ray (röntgenography) data). In intragastric administration (analog of per os) the compound has shown systemic anti-inflammatory action (reduction of swelling, leukocytosis, TNFα level, chondroprotective action) that may be associated with the inhibition of delayed type hypersensitivity.
# [2] = Study of the compound's toxicity: mice mortality, LD50 by Karber method; format: in vivo; details: male, mouse, in vivo; oral; stated as 'may exceed'; read-out: LD50 in oral administration
# Method: (§1) Study of the compound of formula 2 was conducted in vivo. […] To determine the doses of the compound that would need to be studied, it is first necessary to study its toxicity. Studies were carried out in male mice with body mass 18-20 g. Compound 2 was administered as a water suspension. Each dose was administered to 5 animals. Behavior and overall condition of animals were observed during 5 days. LD50 (the dose causing the death of 50% of animals) was calculated using Karber method.
# [3] = tested on: male mice; experiment: as above; format: in vivo; details: for Animal mortality: Alive / Animal mortality: Dead: 5 mice per group, 5 days observation
# Method: as §1
# [4] = tested on: mice stomach; experiment: Aggravation of ulcerogenic effects by 0.6H hydrochloric acid; format: in vivo
# Method: (§2) Studies were performed according to the following scheme: • 1. […] Study of the compounds' ulcerogenic action using pharmaceutical dose during 7 days of administration. • 3. Aggravation of ulcerogenic effects of studied compounds by 0.6H hydrochloric acid. • 4. Aggravation of ulcerogenic effects of studied compounds by the known NSAIDs (indomethacin). 1.
# (§3) Ulcerogenic effect was assessed using 4-point scale: 0—no damage; 0.5—hyperemia; 1—insignificant damage (1 or 2 small bleedings); 2—multiple damage (erosions, small bleedings); 3—significant and multiple damage (erosions, bleedings); 4—severe damage, affecting all gastric mucosa (massive bleedings, erosions, perforations).
# (§4) Male mice with body mass 23-24 g were deprived of food for 24 hours, water access was not limited.
# (§5) Drugs of comparison: indomethacin 20 mg/kg, voltaren—50 mg/kg and aminoguanidine—200 mg/kg. Each test group had 10 animals.
# [5] = tested on: mice stomach; experiment: Aggravation of ulcerogenic effect by indomethacin; format: in vivo
# Method: as §2, §3, §4
# Drugs of comparison: voltaren—50 mg/kg and aminoguanidine—200 mg/kg. Each test group had 10 animals.
# [6] = tested on: carrageenan-induced peritonitis in mice; experiment: Carrageenan-induced peritonitis in mice, volume of exudate; format: in vivo
# Method: Research was carried out by a method described in [5]. Experiments were performed using male mice with body mass 23-24 g, in groups of 10 animals. […] The results were processed using variation statistics methods for biological research (mean standard error, means were calculated using Student's t-distribution).
# [7] = tested on: mice stomach; format: in vivo
# Method: as §2, §3
# After 7 days the animals were sacrificed by CO2, their stomachs extracted and the number of ulcers counted.
# as §5
# [8] = Assessment of other types of pharmaceutical activity
# Source text: All discovered types of pharmacological activity of compound 2 are present not only in its hydrochloride form, but also in its other pharmaceutically acceptable salts (e.g. Na, K, Ca, Mg), and also in complex combinations with pharmaceutically acceptable complexones (e.g. with glycyrrhizic acid).
# [9] = tested on: LPS-induced peritonitis in rats; experiment: LPS-induced peritonitis in rats, volume of exudate; format: in vivo; details: for Anti-inflammatory activity in LPS-induced peritonitis model, % of control: rats
# Method: Anti-exudative action was studied in male rate with body mass 170.0-180.0 g. Peritonitis was induced by intraperitoneal administration of lipopolysaccharide (LPS), produced from Escherichia coli (Sigma)—1.0 mg/kg as described in [6]: after 4 hours the animals were sacrificed by CO2, their peritoneal cavity opened and the volume of exudate was measured in ml. Studied compounds and drugs of comparison were administered per os one hour before LPS, control group was composed of rats receiving 0.3 ml of saline before LPS administration. Each group had 7 animals.
# (§6) The results were processed using variation statistics methods for biological research (mean standard error, means were calculated using Student's t-distribution).
# [10] = tested on: LPS-induced peritonitis in mice; experiment: LPS-induced peritonitis in mice, volume of exudate; format: in vivo
# Method: Activity was studies using the methods listed in “Methodical recommendations on experimental (preclinical) research of new nonsteroidal anti-inflammatory drugs” for new compounds screening, in animal models of peritonitis induced by lipopolysaccharide (LPS) and carrageenan.
# Anti-exudative action was studied in male mice with body mice 22.0-23.0 g. Peritonitis was induced by intraperitoneal administration of lipopolysaccharide (LPS), produced from Escherichia coli (Sigma) 1.0 mg/kg, as described in [6]: after 4 hours the animals were sacrificed by CO2, their peritoneal cavity opened and the volume of exudate was measured in ml. Studied compounds and drugs of comparison were administered per os one hour before LPS, control group was composed of mice receiving 0.3 ml of saline before LPS administration. Each group had 10 animals.
# as §6
# [11] = tested on: mice stomach; experiment: Irritant action on mice stomach, single administration of 500 mg/kg; format: in vivo
# Method: Ulcerogenic effect of compound 2 was studied in accordance with Methodical recommendations on experimental (preclinical) research of new nonsteroidal anti-inflammatory drugs. Studies were performed according to the following scheme: • 1. Study of the compounds' irritant action on mice stomach using doses five-times higher than pharmacological dose (single administration). • 2. Study of the compounds' ulcerogenic action using pharmaceutical dose during 7 days of administration. • 3. Aggravation of ulcerogenic effects of studied compounds by 0.6H hydrochloric acid. • 4. Aggravation of ulcerogenic effects of studied compounds by the known NSAIDs (indomethacin). 1. Study of Irritant Action of Compound 2
# Male mice with body mass 23-24 g were deprived of food for 24 hours, water access was not limited. Number of animals in a group-10.
# Compound 2 in 500 mg/kg dose was administered by a tube into the stomach, after 6 hours the animals were sacrificed, their stomachs extracted, number of ulcers counted and ulcerogenic index calculated. Ulcerogenic effect was assessed using 4-point scale: 0—no damage; 0.5—hyperemia; 1—insignificant damage (1 or 2 small bleedings); 2—multiple damage (erosions, small bleedings); 3—significant and multiple damage (erosions, bleedings); 4—severe damage, affecting all gastric mucosa (massive bleedings, erosions, perforations).
# [12] = 50 mg/kg dose, compared with indomethacin
compound,measurement,setting,value
"N=C(N)N/N=C\c1[nH]c2ccccc2c1Nc1ccc([N+](=O)[O-])cc1 [Compound 2, N-[3-(4-nitrophenylamino)-indole-2-ilmethylene]aminoguanidine hydrochloride]",Chondroprotective effect (cartilage width),[1]; 50 mg/kg dose,chondroprotective effect of compound 2 was noted
same,Degeneration of articular carriage of hock,[1]; 50 mg/kg dose,partially prevented the degeneration of articular carriage of hock
same,Development of joint sclerosis and degradation of hind leg interphalangeal joints (x-ray),[1]; [12],"most effective in inhibiting the development of joint sclerosis and degradation of hind leg interphalangeal joints, better than the drug of comparison"
same,Level of TNFα in blood plasma,[1]; [12],reduced the level of TNFα as good as the drug of comparison
same,Severity of hind leg swelling,[1]; 50 and 75 mg/kg doses,reduced the severity of hind leg swelling
same,Development of delayed type hypersensitivity,"[1]; adjuvant arthritis, Wistar rats",inhibiting the development of delayed type hypersensitivity
same,Leukocytosis,"[1]; adjuvant arthritis, Wistar rats, intragastric",reducing leukocytosis
same,LD50 at 5 days,[2],> 5000 mg/kg
same,Note (behavior),[3]; 500.0 mg/kg intravenous,Normal behavior
same,Animal mortality: Alive,[3]; 500.0 mg/kg intravenous,5
same,Animal mortality: Dead,[3]; 500.0 mg/kg intravenous,0
same,Note (behavior),[3]; 1000.0 mg/kg intravenous,Normal behavior
same,Animal mortality: Alive,[3]; 1000.0 mg/kg intravenous,5
same,Animal mortality: Dead,[3]; 1000.0 mg/kg intravenous,0
same,Note (behavior),[3]; 1500.0 mg/kg intravenous,Normal behavior
same,Animal mortality: Alive,[3]; 1500.0 mg/kg intravenous,5
same,Animal mortality: Dead,[3]; 1500.0 mg/kg intravenous,0
same,Note (behavior),[3]; 2000.0 mg/kg intravenous,Animals depressed
same,Animal mortality: Alive,[3]; 2000.0 mg/kg intravenous,4
same,Animal mortality: Dead,[3]; 2000.0 mg/kg intravenous,1
same,Class of danger as specified by GOST 12.1.007-76,[3]; after intravenous administration up to 2000.0 mg/kg,third class of danger
same,Aggravation of ulceration when combined with 0.6H hydrochloric acid,[4],does not aggravate ulceration
same,Average ulcerogenic index (4-point scale) of combining the studied compounds with hydrochloric acid,"[4]; compound 2 100 mg/kg, indomethacin 20 mg/kg, voltaren 50 mg/kg, aminoguanidine 200 mg/kg, 1 hour before 0.6H HCl 5 ml/kg, after 4 hours",0.15
same,Aggravation of ulceration when combined with indomethacin,[5]; indomethacin in 20 mg/kg dose,does not aggravate ulceration
same,Average ulcerogenic index (4-point scale) of combining the studied compounds with indomethacin,"[5]; mice, compound 2 100 mg/kg, voltaren 50 mg/kg, aminoguanidine 200 mg/kg, 1 hour before indomethacin 20 mg/kg, after 5 hours",2.2
same,"Anti-inflammatory activity in carrageenan-induced peritonitis model, % of control",[6]; 25.0 mg/kg per os,3.9 % of control
same,"Anti-inflammatory activity in carrageenan-induced peritonitis model, % of control",[6]; 50.0 mg/kg per os,21.6* % of control
same,"Anti-inflammatory activity in carrageenan-induced peritonitis model, % of control",[6]; 100.0 mg/kg per os,45.1* % of control
same,"Anti-inflammatory activity in carrageenan-induced peritonitis model, % of control",[6]; 200.0 mg/kg per os,84.3* % of control
same,Irritant effect on gastric mucosa,[7]; chronic use of 200 mg/kg doses,does not have irritant effect on gastric mucosa
same,Average ulcerogenic index (4-point scale) of chronic administration of pharmacological dose,"[7]; mice, per os 7 days, compound 2 200 mg/kg, indomethacin 20 mg/kg, voltaren 50 mg/kg, aminoguanidine 200 mg/kg",0
same,Other types of pharmaceutical activity,[8],"possesses anti-allergic, antihypoxic and analgesic activity"
same,ED50,"[9]; Rattus norvegicus, po",48 ± 4.5 mg/kg
same,"Anti-inflammatory activity in LPS-induced peritonitis model, % of control",[9]; 10.0 mg/kg per os,2.0 % of control
same,"Anti-inflammatory activity in LPS-induced peritonitis model, % of control",[9]; 25.0 mg/kg per os,26.0* % of control
same,"Anti-inflammatory activity in LPS-induced peritonitis model, % of control",[9]; 50.0 mg/kg per os,58.0* % of control
same,"Anti-inflammatory activity in LPS-induced peritonitis model, % of control",[9]; 75.0 mg/kg per os,78.0* % of control
same,"Anti-inflammatory activity in LPS-induced peritonitis model, % of control",[9]; 100.0 mg/kg per os,100.0* % of control
same,Anti-inflammatory activity compared with voltaren and aminoguanidine,[9]; summary of tables 2 and 3 (mice and rat peritonitis models),"somewhat inferior to voltaren in used models, but is better than aminoguanidine"
same,"Anti-inflammatory activity in LPS-induced peritonitis model, % of control",[10]; 25.0 mg/kg per os,2.2 % of control
same,"Anti-inflammatory activity in LPS-induced peritonitis model, % of control",[10]; 50.0 mg/kg per os,46.7* % of control
same,"Anti-inflammatory activity in LPS-induced peritonitis model, % of control",[10]; 100.0 mg/kg per os,88.9* % of control
same,"Anti-inflammatory activity in LPS-induced peritonitis model, % of control",[10]; 200.0 mg/kg per os,100.0* % of control
same,Average ulcerogenic index (4-point scale) of single administration of the compounds in 500.0 mg/kg dose,"[11]; mice fasted 24 h, into the stomach, sacrificed after 6 hours",0
same,Irritant effect on gastric mucosa,[11]; single administration of 500 mg/kg dose,does not have irritant effect on gastric mucosa
